# Measurements reported in US7964531B2, “3-phenoxy-4-pyridazinol derivatives and herbicidal composition containing the same” (Mitsui Chemicals Agro, Inc., priority 2001, dated 2011).
# How the values were obtained:
# [1] = test system: transplanted paddy-field rice; assay: Test Example 4: crop injury against transplanted paddy-field rice; format: in vivo; settings: after 25 days
# Description: (§1) Paddy filed soil was filled in 1/5000 are Wagner pot, seeds of barnyardgrass (Echinochloa oryzicola Vasing.), Scirpus joncoides and annual broad-leaved weeds (Lindernia spp. and Rotala indica) which are awaken from dormancy were mixed at the surface layer of 1 cm. Also, tubers of Cyperus serotinus, Sagittaria pygmaea and Eleocharis kuroguwai which are awaken from dormancy were planted, and further seedlings of paddy-field rice at 2.2-leaf stage were transplanted and they were grown under the flooded condition in a greenhouse. After 3 days from the transplanting, a predetermined chemical dosage of the wettable powder prepared in accordance with Preparation example 5 was diluted with water, and applied to the pot. After 25 days, herbicidal effects and crop injury against transplanted paddy-field rice were judged according to the following judgment standard, and the results were shown in Table 5. Incidentally, “-” in the table means a composition containing no effective ingredient.
# (§2) Judgment Standard • 0: Growth-inhibition rate; 0 to 15% • 1: Growth inhibition rate; 16 to 35% • 2: Growth inhibition rate; 36 to 55% • 3: Growth inhibition rate; 56 to 75% • 4: Growth inhibition rate; […] • 5: Growth inhibition rate; 96 to 100%.
# [2] = test system: Sagittaria pygmaea; assay: Test Example 4: herbicidal effects of mixed wettable powder, paddy-field pot test; format: in vivo; settings: after 25 days
# Description: as §1, §2
# [3] = test system: barnyardgrass (Echinochloa oryzicola Vasing.); assay: as above; format: in vivo; settings: after 25 days
# Description: as §1, §2
# [4] = test system: Cyperus serotinus; assay: as above; format: in vivo; settings: after 25 days
# Description: as §1, §2
# [5] = test system: Scirpus joncoides; assay: as above; format: in vivo; settings: after 25 days
# Description: as §1, §2
# [6] = test system: Eleocharis kuroguwai; assay: as above; format: in vivo; settings: after 25 days
# Description: as §1, §2
# [7] = test system: annual broad-leaved weeds (Lindernia spp. and Rotala indica); assay: as above; format: in vivo; settings: after 25 days
# Description: as §1, §2
# [8] = test system: annual broad-leaved weeds (Lindernia spp., Rotala indica); assay: Test Example 1: herbicidal effects, paddy-field pot test; format: in vivo; settings: wettable powder applied 3 days after transplanting, judged after 25 days
# Method in brief: (§3)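 First, paddy soil was potted and seeded at the surface layer with non-dormant weed seeds; germinated Cyperus serotinus tubers were planted and 2.2-leaf rice transplanted. Three days later, diluted wettable powder was applied under flooding. Inhibition was rated 0–5 after 25 days.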
# [9] = test system: barnyardgrass (Echinochloa oryzicola Vasing.); assay: as above; format: in vivo; settings: wettable powder applied 3 days after transplanting, judged after 25 days
# Method in brief: as §3
# [10] = test system: Cyperus serotinus; assay: as above; format: in vivo; settings: wettable powder applied 3 days after transplanting, judged after 25 days
# Method in brief: as §3
# [11] = test system: Scirpus joncoides; assay: as above; format: in vivo; settings: wettable powder applied 3 days after transplanting, judged after 25 days
# Method in brief: as §3
# [12] = test system: transplanted paddy-field rice; assay: Test Example 1: crop injury against transplanted paddy-field rice; format: in vivo; settings: wettable powder applied 3 days after transplanting, judged after 25 days
# Method in brief: as §3
# [13] = derivative 5 g/a, no second compound
# [14] = derivative 10 g/a, no second compound
Compound,"Crop injury against transplanted rice [1, 13]","Crop injury against transplanted rice [1, 14]","Herbicidal effects Sagittaria pygmaea [2, 13]","Herbicidal effects Sagittaria pygmaea [2, 14]","Herbicidal effects Barnyard grass [3, 13]","Herbicidal effects Barnyard grass [3, 14]",Crop injury against transplanted rice ([1]; second compound alone 5 g/a),Crop injury against transplanted rice ([1]; second compound alone 30 g/a),Herbicidal effects Sagittaria pygmaea ([2]; second compound alone 5 g/a),Herbicidal effects Sagittaria pygmaea ([2]; second compound alone 30 g/a),Herbicidal effects Barnyard grass ([3]; second compound alone 5 g/a),Herbicidal effects Barnyard grass ([3]; second compound alone 30 g/a),Herbicidal effects Cyperus serotinus ([4]; second compound alone 5 g/a),Herbicidal effects Cyperus serotinus ([4]; second compound alone 30 g/a),Herbicidal effects Scirpus joncoides ([5]; second compound alone 5 g/a),Herbicidal effects Scirpus joncoides ([5]; second compound alone 30 g/a),Herbicidal effects Eleocharis kuroguwai ([6]; second compound alone 5 g/a),Herbicidal effects Eleocharis kuroguwai ([6]; second compound alone 30 g/a),Herbicidal effects Broad leaf ([7]; second compound alone 5 g/a),Herbicidal effects Broad leaf ([7]; second compound alone 30 g/a),also measured
Cc1ccccc1Oc1nnc(Cl)cc1O [Example 1],0 (Growth-inhibition rate; 0 to 15%),0 (Growth-inhibition rate; 0 to 15%),4 (Growth inhibition rate; 7.6 to 95%),4 (Growth inhibition rate; 7.6 to 95%),2 (Growth inhibition rate; 36 to 55%),4 (Growth inhibition rate; 7.6 to 95%),–,–,–,–,–,–,–,–,–,–,–,–,–,–,"Herbicidal effects Cyperus serotinus [4, 13]: 4 (Growth inhibition rate; 7.6 to 95%); Herbicidal effects Cyperus serotinus [4, 14]: 5 (Growth inhibition rate; 96 to 100%); Herbicidal effects Scirpus joncoides [5, 13]: 2 (Growth inhibition rate; 36 to 55%); Herbicidal effects Scirpus joncoides [5, 14]: 4 (Growth inhibition rate; 7.6 to 95%); Herbicidal effects Eleocharis kuroguwai [6, 13]: 0 (Growth-inhibition rate; 0 to 15%); Herbicidal effects Eleocharis kuroguwai [6, 14]: 0 (Growth-inhibition rate; 0 to 15%); Herbicidal effects Broad leaf [7, 13]: 3 (Growth inhibition rate; 56 to 75%); Herbicidal effects Broad leaf [7, 14]: 4 (Growth inhibition rate; 7.6 to 95%); Herbicidal effects Broad leaf ([8]; chemical dosage 12.5 g/a): 5 (Growth inhibition rate; 91 to 100%); Herbicidal effects Broad leaf ([8]; chemical dosage 25 g/a): 5 (Growth inhibition rate; 91 to 100%); Herbicidal effects Barnyard grass ([9]; chemical dosage 12.5 g/a): 4 (Growth inhibition rate; 71 to 90%); Herbicidal effects Barnyard grass ([9]; chemical dosage 25 g/a): 5 (Growth inhibition rate; 91 to 100%); Herbicidal effects Cyperus serotinus ([10]; chemical dosage 12.5 g/a): 5 (Growth inhibition rate; 91 to 100%); Herbicidal effects Cyperus serotinus ([10]; chemical dosage 25 g/a): 5 (Growth inhibition rate; 91 to 100%); Herbicidal effects Scirpus joncoides ([11]; chemical dosage 12.5 g/a): 5 (Growth inhibition rate; 91 to 100%); Herbicidal effects Scirpus joncoides ([11]; chemical dosage 25 g/a): 5 (Growth inhibition rate; 91 to 100%); Crop injury against transplanted rice ([12]; chemical dosage 12.5 g/a): 0 (Growth inhibition rate; 0 to 10%); Crop injury against transplanted rice ([12]; chemical dosage 25 g/a): 0 (Growth inhibition rate; 0 to 10%)"
"N#CC1CC1c1ccccc1Oc1nnc(Cl)cc1O (stereo not drawn) [Compound No. 226, 2-{2-[(6-Chloro-4-hydroxy-3-pyridazinyl)oxy]phenyl}-cyclopropanecarbonitrile]",0 (Growth-inhibition rate; 0 to 15%),0 (Growth-inhibition rate; 0 to 15%),5 (Growth inhibition rate; 96 to 100%),5 (Growth inhibition rate; 96 to 100%),3 (Growth inhibition rate; 56 to 75%),3 (Growth inhibition rate; 56 to 75%),–,–,–,–,–,–,–,–,–,–,–,–,–,–,"Herbicidal effects Cyperus serotinus [4, 13]: 5 (Growth inhibition rate; 96 to 100%); Herbicidal effects Cyperus serotinus [4, 14]: 5 (Growth inhibition rate; 96 to 100%); Herbicidal effects Scirpus joncoides [5, 13]: 4 (Growth inhibition rate; 7.6 to 95%); Herbicidal effects Scirpus joncoides [5, 14]: 5 (Growth inhibition rate; 96 to 100%); Herbicidal effects Eleocharis kuroguwai [6, 13]: 1 (Growth inhibition rate; 16 to 35%); Herbicidal effects Eleocharis kuroguwai [6, 14]: 2 (Growth inhibition rate; 36 to 55%); Herbicidal effects Broad leaf [7, 13]: 5 (Growth inhibition rate; 96 to 100%); Herbicidal effects Broad leaf [7, 14]: 5 (Growth inhibition rate; 96 to 100%); melting point: 203 to 207 °C"
"Cc1ccc(S(=O)(=O)Oc2c(C(=O)c3ccc(Cl)cc3Cl)c(C)nn2C)cc1 [Compound A, 4-(2,4-dichlorobenzoyl)-1,3-dimethyl-5-pyrazolyl-p-toluenesulfonate, reference compound]",–,–,–,–,–,–,0 (Growth-inhibition rate; 0 to 15%),0 (Growth-inhibition rate; 0 to 15%),4 (Growth inhibition rate; 7.6 to 95%),5 (Growth inhibition rate; 96 to 100%),3 (Growth inhibition rate; 56 to 75%),5 (Growth inhibition rate; 96 to 100%),2 (Growth inhibition rate; 36 to 55%),4 (Growth inhibition rate; 7.6 to 95%),3 (Growth inhibition rate; 56 to 75%),4 (Growth inhibition rate; 7.6 to 95%),0 (Growth-inhibition rate; 0 to 15%),2 (Growth inhibition rate; 36 to 55%),4 (Growth inhibition rate; 7.6 to 95%),5 (Growth inhibition rate; 96 to 100%),–
"Cc1ccc(C(=O)COc2c(C(=O)c3c(Cl)ccc(C)c3Cl)c(C)nn2C)cc1 [Compound C, 2-[4-(2,4-dichloro-m-toluoyl)-1,3-dimethylpyrazol-5-yloxy]-4′-methyl-acetophenone, reference compound]",–,–,–,–,–,–,0 (Growth-inhibition rate; 0 to 15%),0 (Growth-inhibition rate; 0 to 15%),4 (Growth inhibition rate; 7.6 to 95%),5 (Growth inhibition rate; 96 to 100%),3 (Growth inhibition rate; 56 to 75%),5 (Growth inhibition rate; 96 to 100%),1 (Growth inhibition rate; 16 to 35%),4 (Growth inhibition rate; 7.6 to 95%),2 (Growth inhibition rate; 36 to 55%),4 (Growth inhibition rate; 7.6 to 95%),0 (Growth-inhibition rate; 0 to 15%),2 (Growth inhibition rate; 36 to 55%),5 (Growth inhibition rate; 96 to 100%),5 (Growth inhibition rate; 96 to 100%),–
"Cc1nn(C)c(OCC(=O)c2ccccc2)c1C(=O)c1ccc(Cl)cc1Cl [Compound B, 2-[4-(2,4-dichlorobenzoyl)-1,3-dimethylpyrazol-5-yloxy]acetophenone, reference compound]",–,–,–,–,–,–,0 (Growth-inhibition rate; 0 to 15%),0 (Growth-inhibition rate; 0 to 15%),4 (Growth inhibition rate; 7.6 to 95%),5 (Growth inhibition rate; 96 to 100%),3 (Growth inhibition rate; 56 to 75%),5 (Growth inhibition rate; 96 to 100%),2 (Growth inhibition rate; 36 to 55%),4 (Growth inhibition rate; 7.6 to 95%),3 (Growth inhibition rate; 56 to 75%),4 (Growth inhibition rate; 7.6 to 95%),0 (Growth-inhibition rate; 0 to 15%),2 (Growth inhibition rate; 36 to 55%),4 (Growth inhibition rate; 7.6 to 95%),5 (Growth inhibition rate; 96 to 100%),–
